Test system: MV-4-11 cells
Assay: Gene expression microarray analysis (Affymetrix PrimeView) and GSEA
Format: cell-based, human
Design: RFU PODN (11730768_x_at) / Fold change /veh PODN (11730768_x_at) / RFU LINC00158 (11744669_a_at) / Fold change /veh LINC00158 (11744669_a_at) / RFU DUSP10 (11751237_a_at) / Fold change /veh DUSP10 (11751237_a_at) / RFU ID3 (11757404_x_at) / Fold change /veh ID3 (11757404_x_at) / RFU PLEKHG5 (11737974_s_at) / Fold change /veh PLEKHG5 (11737974_s_at) / RFU LRRC4B (11730491_at) / Fold change /veh LRRC4B (11730491_at) / RFU GIMAP4 (11747438_a_at) / Fold change /veh GIMAP4 (11747438_a_at) / RFU KRT8 (11758183_x_at) / Fold change /veh KRT8 (11758183_x_at) / RFU CNN1 (11734310_a_at) / Fold change /veh CNN1 (11734310_a_at) / RFU VPS37D (11726825_at) / Fold change /veh VPS37D (11726825_at) / RFU C10orf10 (11716522_x_at) / Fold change /veh C10orf10 (11716522_x_at) / RFU KIR2DL2 /// KIR2DL4 /// KIR2DL5A /// KIR2DL5B /// KIR2DS1 /// KIR2DS2 /// KIR2DS3 /// KIR2DS4 /// KIR3DL3 /// KIR3DL3 /// KIR3DS1 (11738374_at) / Fold change /veh KIR2DL2 /// KIR2DL4 /// KIR2DL5A /// KIR2DL5B /// KIR2DS1 /// KIR2DS2 /// KIR2DS3 /// KIR2DS4 /// KIR3DL3 /// KIR3DL3 /// KIR3DS1 (11738374_at) / RFU C1QL1 (11718748_at) / Fold change /veh C1QL1 (11718748_at) / RFU TMPRSS4 (11747572_a_at) / Fold change /veh TMPRSS4 (11747572_a_at) / RFU HAMP (11756126_x_at) / Fold change /veh HAMP (11756126_x_at) / RFU RNFT2 (11725882_a_at) / Fold change /veh RNFT2 (11725882_a_at) / RFU NR4A2 (11747474_a_at) / Fold change /veh NR4A2 (11747474_a_at) / RFU ABCC12 (11746883_a_at) / Fold change /veh ABCC12 (11746883_a_at) / RFU TMEM136 (11760407_x_at) / Fold change /veh TMEM136 (11760407_x_at) / RFU CLDN22 /// WWC2 (11732394_at) / Fold change /veh CLDN22 /// WWC2 (11732394_at) / RFU HLA-DPB1 (11760878_x_at) / Fold change /veh HLA-DPB1 (11760878_x_at) / RFU SPINT1 (11716480_a_at) / Fold change /veh SPINT1 (11716480_a_at) / RFU GAP43 (11754022_s_at) / Fold change /veh GAP43 (11754022_s_at) / RFU A4GNT (11735810_at) / Fold change /veh A4GNT (11735810_at) / RFU PRB3 (11715151_x_at) / Fold change /veh PRB3 (11715151_x_at) / RFU TUBB4B (11761932_at) / Fold change /veh TUBB4B (11761932_at) / RFU CAPN14 (11732068_a_at) / Fold change /veh CAPN14 (11732068_a_at) / RFU TMCC2 (11721928_a_at) / Fold change /veh TMCC2 (11721928_a_at) / RFU IRGQ (11745062_a_at) / Fold change /veh IRGQ (11745062_a_at) / RFU FAM174B (11720279_a_at) / Fold change /veh FAM174B (11720279_a_at) / RFU TMPRSS4 (11748680_a_at) / Fold change /veh TMPRSS4 (11748680_a_at) / RFU FAM212B (11763350_a_at) / Fold change /veh FAM212B (11763350_a_at) / RFU PLEKHG5 (11743358_a_at) / Fold change /veh PLEKHG5 (11743358_a_at) / RFU ZSCAN30 (11745921_a_at) / Fold change /veh ZSCAN30 (11745921_a_at) / RFU CMKLR1 (11741424_a_at) / Fold change /veh CMKLR1 (11741424_a_at) / RFU LOC101060620 /// MAPK8IP1 (11723275_at) / Fold change /veh LOC101060620 /// MAPK8IP1 (11723275_at) / RFU SPTSSB (11747773_x_at) / Fold change /veh SPTSSB (11747773_x_at) / RFU PRSS12 (11739890_at) / Fold change /veh PRSS12 (11739890_at) / RFU BIN1 (11741810_x_at) / Fold change /veh BIN1 (11741810_x_at) / RFU WNT11 (11732464_a_at) / Fold change /veh WNT11 (11732464_a_at) / RFU C10orf10 (11716521_a_at) / Fold change /veh C10orf10 (11716521_a_at) / RFU C5orf56 (11738089_at) / Fold change /veh C5orf56 (11738089_at) / RFU CYB561 (11721691_x_at) / Fold change /veh CYB561 (11721691_x_at) / RFU ANKRD19P (11752326_a_at) / Fold change /veh ANKRD19P (11752326_a_at) / RFU OR2T12 /// OR2T33 /// OR2T8 (11738714_s_at) / Fold change /veh OR2T12 /// OR2T33 /// OR2T8 (11738714_s_at) / RFU VCAN (11748164_a_at) / Fold change /veh VCAN (11748164_a_at) / RFU JSRP1 (11732532_at) / Fold change /veh JSRP1 (11732532_at) / RFU KRTAP10-11 (11738290_x_at) / Fold change /veh KRTAP10-11 (11738290_x_at) / RFU MYO3A (11730013_a_at) / Fold change /veh MYO3A (11730013_a_at) / RFU EBF3 (11725865_a_at) / Fold change /veh EBF3 (11725865_a_at) / RFU CAMK2N1 (11719241_x_at) / Fold change /veh CAMK2N1 (11719241_x_at) / RFU C5orf56 (11738088_a_at) / Fold change /veh C5orf56 (11738088_a_at) / RFU OLFML3 (11715873_a_at) / Fold change /veh OLFML3 (11715873_a_at) / RFU LOC100653217 /// NTM (11731650_a_at) / Fold change /veh LOC100653217 /// NTM (11731650_a_at) / RFU MAPK11 (11762145_a_at) / Fold change /veh MAPK11 (11762145_a_at) / RFU FIZ1 (11724087_x_at) / Fold change /veh FIZ1 (11724087_x_at) / RFU OASL (11726364_x_at) / Fold change /veh OASL (11726364_x_at) / RFU SOX15 (11748057_x_at) / Fold change /veh SOX15 (11748057_x_at) / RFU CD79A (11719716_a_at) / Fold change /veh CD79A (11719716_a_at) / RFU HIST1H1D (11736915_at) / Fold change /veh HIST1H1D (11736915_at) / RFU CASKIN2 (11723855_a_at) / Fold change /veh CASKIN2 (11723855_a_at) / RFU LOC730098 (11760151_x_at) / Fold change /veh LOC730098 (11760151_x_at) / RFU OR4N2 (11742367_at) / Fold change /veh OR4N2 (11742367_at) / RFU PRRT2 (11749266_a_at) / Fold change /veh PRRT2 (11749266_a_at) / RFU SNX32 (11753110_a_at) / Fold change /veh SNX32 (11753110_a_at) / RFU CDHR5 (11726645_a_at) / Fold change /veh CDHR5 (11726645_a_at) / RFU RCAN1 (11760418_a_at) / Fold change /veh RCAN1 (11760418_a_at) / RFU FAM167A (11723789_a_at) / Fold change /veh FAM167A (11723789_a_at) / RFU FAM26E (11764081_at) / Fold change /veh FAM26E (11764081_at) / RFU ISYNA1 (11749810_s_at) / Fold change /veh ISYNA1 (11749810_s_at) / RFU ACY1 (11761880_at) / Fold change /veh ACY1 (11761880_at) / RFU 11764098_at / Fold change /veh 11764098_at / RFU SAMD14 (11745864_x_at) / Fold change /veh SAMD14 (11745864_x_at) / RFU NPB (11741838_a_at) / Fold change /veh NPB (11741838_a_at) / RFU TMPRSS6 (11731388_a_at) / Fold change /veh TMPRSS6 (11731388_a_at) / RFU KRTAP10-2 (11738614_at) / Fold change /veh KRTAP10-2 (11738614_at) / RFU ARHGAP8 /// PRR5-ARHGAP8 (11727945_x_at) / Fold change /veh ARHGAP8 /// PRR5-ARHGAP8 (11727945_x_at) / RFU KRTAP5-7 /// NADSYN1 (11734609_at) / Fold change /veh KRTAP5-7 /// NADSYN1 (11734609_at) / RFU RASL12 (11751679_a_at) / Fold change /veh RASL12 (11751679_a_at) / RFU CDKN2B (11736163_a_at) / Fold change /veh CDKN2B (11736163_a_at) / RFU PRF1 (11729649_at) / Fold change /veh PRF1 (11729649_at) / RFU, ZNF638 /// ZNF638-IT1 / Fold change vs veh, ZNF638 /// ZNF638-IT1 / RFU, PANK3 / Fold change vs veh, PANK3 / RFU, SH3YL1 / Fold change vs veh, SH3YL1 / RFU, ZEB2 / Fold change vs veh, ZEB2 / RFU, NRIP1 / Fold change vs veh, NRIP1 / RFU, PTTG1IP / Fold change vs veh, PTTG1IP / RFU, CAPN2 / Fold change vs veh, CAPN2 / RFU, MED14 / Fold change vs veh, MED14 / RFU, SNORA58 / Fold change vs veh, SNORA58 / RFU, C1orf63 / Fold change vs veh, C1orf63 / RFU, LRRFIP1 / Fold change vs veh, LRRFIP1 / RFU, NDUFAF7 / Fold change vs veh, NDUFAF7 / RFU, SLC12A2 / Fold change vs veh, SLC12A2 / RFU, IBTK / Fold change vs veh, IBTK / RFU, ESF1 / Fold change vs veh, ESF1 / Fold change vs veh, TMEM50B / RFU, TAOK1 / Fold change vs veh, TAOK1 / RFU, ACBD3 / Fold change vs veh, ACBD3 / RFU, TMA16 / Fold change vs veh, TMA16 / RFU, RWDD3 / Fold change vs veh, RWDD3 / RFU, BCAT1 / Fold change vs veh, BCAT1 / RFU, EDEM3 / Fold change vs veh, EDEM3 / RFU, TMEM33 / Fold change vs veh, TMEM33 / RFU, WDR75 / Fold change vs veh, WDR75 / RFU, AHCTF1 / Fold change vs veh, AHCTF1 / RFU, TFRC / Fold change vs veh, TFRC / RFU, ZDHHC17 / Fold change vs veh, ZDHHC17 / RFU, NOM1 / Fold change vs veh, NOM1 / RFU, ARL8B / Fold change vs veh, ARL8B / RFU, ZBTB11 / Fold change vs veh, ZBTB11 / RFU, TAMM41 / Fold change vs veh, TAMM41 / RFU, KIAA1704 /// LOC100996395 / Fold change vs veh, KIAA1704 /// LOC100996395 / RFU, ING1 / Fold change vs veh, ING1 / RFU, TRMT61B / Fold change vs veh, TRMT61B / RFU, FUBP3 / Fold change vs veh, FUBP3 / RFU, TP53 / Fold change vs veh, TP53 / RFU, TNKS2 / Fold change vs veh, TNKS2 / RFU, ZFP14 / Fold change vs veh, ZFP14 / RFU, ACTR2 / Fold change vs veh, ACTR2 / RFU, PPP3R1 / Fold change vs veh, PPP3R1 / RFU, PIK3R1 / Fold change vs veh, PIK3R1 / RFU, HNRNPA1 / Fold change vs veh, HNRNPA1 / RFU, RNF170 / Fold change vs veh, RNF170 / RFU, ZNF28 / Fold change vs veh, ZNF28 / RFU, RNGTT / Fold change vs veh, RNGTT / RFU, OGT / Fold change vs veh, OGT / RFU, BRD1 / Fold change vs veh, BRD1 / RFU, MARS / Fold change vs veh, MARS / RFU, ZNF655 / Fold change vs veh, ZNF655 / RFU, FAHD1 / Fold change vs veh, FAHD1 / RFU, BDP1 / Fold change vs veh, BDP1 / RFU, LRRCC1 / Fold change vs veh, LRRCC1 / RFU, ARID1A / Fold change vs veh, ARID1A / RFU, ZNF146 / Fold change vs veh, ZNF146 / RFU, ZNF330 / Fold change vs veh, ZNF330 / RFU, GPN3 / Fold change vs veh, GPN3 / RFU, C9orf123 / Fold change vs veh, C9orf123 / RFU, N4BP2L2 / Fold change vs veh, N4BP2L2 / RFU, ARFIP1 / Fold change vs veh, ARFIP1 / RFU, FAM179B / Fold change vs veh, FAM179B / RFU, BCL10 / Fold change vs veh, BCL10 / RFU, UHRF1BP1L / Fold change vs veh, UHRF1BP1L / RFU, BET1 / Fold change vs veh, BET1 / RFU, CNOT2 / Fold change vs veh, CNOT2 / RFU, ZNF268 / Fold change vs veh, ZNF268 / Fold change vs veh, ZNF507 / RFU, DGCR2 / Fold change vs veh, DGCR2 / RFU, WDSUB1 / Fold change vs veh, WDSUB1 / Fold change vs veh, HSP90B1 /// MIR3652 / RFU, ADSS / Fold change vs veh, ADSS / RFU, GK / Fold change vs veh, GK / RFU, ZNF148 / Fold change vs veh, ZNF148 / RFU, TAF9 / Fold change vs veh, TAF9 / RFU, SLC1A5 / Fold change vs veh, SLC1A5 / RFU, SLMO2 / Fold change vs veh, SLMO2 / RFU, ABCC4 / Fold change vs veh, ABCC4 / RFU, LOC101060439 /// RAP1B / Fold change vs veh, LOC101060439 /// RAP1B / RFU, RFX7 / Fold change vs veh, RFX7 / RFU, GTPBP10 / Fold change vs veh, GTPBP10 / RFU, CNEP1R1 / Fold change vs veh, CNEP1R1 / RFU, BIVM-ERCC5 /// ERCC5 / Fold change vs veh, BIVM-ERCC5 /// ERCC5 / RFU, ILF3 / Fold change vs veh, ILF3 / RFU 11762660_at / Fold change /veh 11762660_at / RFU VCAN (11757783_s_at) / Fold change /veh VCAN (11757783_s_at) / RFU DDX43 (11728927_at) / Fold change /veh DDX43 (11728927_at) / RFU KRT8 (11758188_x_at) / Fold change /veh KRT8 (11758188_x_at) / RFU NKD1 (11759106_at) / Fold change /veh NKD1 (11759106_at) / RFU SRD5A1 (11742802_a_at) / Fold change /veh SRD5A1 (11742802_a_at) / RFU TPSAB1 /// TPSB2 (11721975_s_at) / Fold change /veh TPSAB1 /// TPSB2 (11721975_s_at) / RFU GSTM3 (11746129_a_at) / Fold change /veh GSTM3 (11746129_a_at) / RFU IL23R (11737362_x_at) / Fold change /veh IL23R (11737362_x_at) / RFU TMEM51 (11727254_a_at) / Fold change /veh TMEM51 (11727254_a_at) / RFU PIWIL2 (11732686_x_at) / Fold change /veh PIWIL2 (11732686_x_at) / RFU ORM1 (11744905_x_at) / Fold change /veh ORM1 (11744905_x_at) / RFU CCDC152 (11743942_at) / Fold change /veh CCDC152 (11743942_at) / RFU ECM1 (11717891_a_at) / Fold change /veh ECM1 (11717891_a_at) / RFU IL23R (11748794_a_at) / Fold change /veh IL23R (11748794_a_at) / RFU TNFAIP8L3 (11732012_x_at) / Fold change /veh TNFAIP8L3 (11732012_x_at) / RFU MBOAT4 (11741988_at) / Fold change /veh MBOAT4 (11741988_at) / RFU 11764193_at / Fold change /veh 11764193_at / RFU TMEM53 (11763286_at) / Fold change /veh TMEM53 (11763286_at) / RFU MAGEB2 (11727129_at) / Fold change /veh MAGEB2 (11727129_at) / RFU TMEM200A (11744735_a_at) / Fold change /veh TMEM200A (11744735_a_at) / RFU CCDC152 (11751479_a_at) / Fold change /veh CCDC152 (11751479_a_at) / RFU FAM211A (11726209_a_at) / Fold change /veh FAM211A (11726209_a_at) / RFU RGS16 (11746705_a_at) / Fold change /veh RGS16 (11746705_a_at) / RFU VCAN (11755009_s_at) / Fold change /veh VCAN (11755009_s_at) / RFU RHOB (11743442_s_at) / Fold change /veh RHOB (11743442_s_at) / RFU RGS16 (11720943_a_at) / Fold change /veh RGS16 (11720943_a_at) / RFU RGS16 (11720944_at) / Fold change /veh RGS16 (11720944_at) / RFU, VPS4B / Fold change vs veh, VPS4B / RFU, CREB1 / Fold change vs veh, CREB1 / RFU, DNAJC13 / Fold change vs veh, DNAJC13 / RFU, GNAQ / Fold change vs veh, GNAQ / RFU, CDK5R1 / Fold change vs veh, CDK5R1 / RFU, ZRANB3 / Fold change vs veh, ZRANB3 / RFU, CUL4A / Fold change vs veh, CUL4A / RFU, CCNY / Fold change vs veh, CCNY / RFU, UFL1 / Fold change vs veh, UFL1 / RFU, COG3 / Fold change vs veh, COG3 / RFU, DIAPH2 / Fold change vs veh, DIAPH2 / RFU, SKA2 / Fold change vs veh, SKA2 / RFU, AFF3 / Fold change vs veh, AFF3 / RFU, LMF1 / Fold change vs veh, LMF1 / RFU, IPO11 / Fold change vs veh, IPO11 / RFU, DFFB / Fold change vs veh, DFFB / RFU, FOXP1 / Fold change vs veh, FOXP1 / RFU, CARD8 / Fold change vs veh, CARD8 / RFU, STRN3 / Fold change vs veh, STRN3 / RFU, ADK / Fold change vs veh, ADK / RFU, RASSF2 / Fold change vs veh, RASSF2 / RFU, WIPF1 / Fold change vs veh, WIPF1 / RFU, LARP1B / Fold change vs veh, LARP1B / RFU, RASA1 / Fold change vs veh, RASA1 / RFU, RB1 / Fold change vs veh, RB1 / RFU, PPFIA1 / Fold change vs veh, PPFIA1 / RFU, MAT2A / Fold change vs veh, MAT2A / RFU, CCT5 / Fold change vs veh, CCT5 / RFU, WDR92 / Fold change vs veh, WDR92 / RFU, CUX1 / Fold change vs veh, CUX1 / RFU, TTC7A / Fold change vs veh, TTC7A / RFU, TMEM135 / Fold change vs veh, TMEM135 / RFU, DEPTOR / Fold change vs veh, DEPTOR / RFU, CPM / Fold change vs veh, CPM / RFU, DNAJB6 / Fold change vs veh, DNAJB6 / RFU, CACNA2D3 / Fold change vs veh, CACNA2D3 / RFU, DTX4 / Fold change vs veh, DTX4 / RFU, TFCP2 / Fold change vs veh, TFCP2 / RFU, GMCL1 /// GMCL1P1 / Fold change vs veh, GMCL1 /// GMCL1P1 / RFU, AEBP2 / Fold change vs veh, AEBP2 / RFU, SNHG1 /// SNORD22 /// SNORD25 /// SNORD26 /// SNORD27 /// SNORD28 /// SNORD29 /// SNORD31 / Fold change vs veh, SNHG1 /// SNORD22 /// SNORD25 /// SNORD26 /// SNORD27 /// SNORD28 /// SNORD29 /// SNORD31 / Fold change (Aza/veh), C12orf56 (ProbeSet 11735607_a_at) / Fold change (ACY-1035/veh), C12orf56 (ProbeSet 11735607_a_at) / Fold change (Aza/veh), FGFR1OP (ProbeSet 11751329_s_at) / Fold change (ACY-1035/veh), FGFR1OP (ProbeSet 11751329_s_at) / Fold change (Aza/veh), VPS36 (ProbeSet 11739960_a_at) / Fold change (ACY-1035/veh), VPS36 (ProbeSet 11739960_a_at) / RFU SYPL1 (11715823_x_at) / Fold change /veh SYPL1 (11715823_x_at) / RFU IGFBP7 (11715501_s_at) / Fold change /veh IGFBP7 (11715501_s_at) / RFU REEP3 (11722064_at) / Fold change /veh REEP3 (11722064_at) / RFU IGLL1 (11728026_x_at) / Fold change /veh IGLL1 (11728026_x_at): dose or concentration left out as unconfirmed
Conditions: MV-4-11 cells, 48 hours

Nc1ccc(-c2cccs2)cc1NC(=O)c1ccc2c(c1)cc(C1CC1)n2CCN1CCOCC1 [ACY-1035] was tested, and the “Fold change /veh C5orf56 (11738089_at)” value was 1.04.

Source: PMC5218480 (PLoS ONE, 2017)
